Reference: patent US10233182B2, “Substituted spirocyclic inhibitors of autotaxin” (X-Rx, Inc., priority 2014, dated 2019)
Structures can show the parent of a compound that is named as a salt.

Target: Autotaxin (Homo sapiens (Human), UniProt Q13822)
Experiment: Autotaxin LPC Cascade Assay
Format: biochemical
Conditions: Autotaxin 5 nM, LPC 100 μM, choline oxidase/HRP/Ampliflu Red fluorescence read-out, 2% DMSO, RT; read-out: IC50 ATX Activity
Outline: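 Choline liberated from LPC by autotaxin during 1 h, after a 10-min RT compound preincubation, was converted through choline oxidase/HRP to a fluorescent Ampliflu Red product.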

Structure (SMILES): CC(C)[C@@H](NC(=O)c1cc(C(F)(F)F)ccc1F)C(=O)N1CCC2(CC1)C(=O)N(C)C(=O)N2C [Example 122, (R)—N-(1-(1,3-Dimethyl-2,4-dioxo-1,3,8-triazaspiro[4.5]decan-8-yl)-3-methyl-1-oxobutan-2-yl)-2-fluoro-5-(trifluoromethyl)benzamide]
- IC50: ≥ 1000 nM

Structure (SMILES): CC(C)[C@@H](NC(=O)c1cccnc1)C(=O)N1CCC2(CC1)C(=O)N(C)C(=O)N2c1ccc2[nH]ncc2c1 [Example 229, (R)—N-(1-(1-(1H-Indazol-5-yl)-3-methyl-2,4-dioxo-1,3,8-triazaspiro[4.5]decan-8-yl)-3-methyl-1-oxobutan-2-yl)nicotinamide]
- IC50: ≥ 1000 nM

Structure (SMILES): Cc1cccc(C(=O)N[C@@H](C(=O)N2CCC3(CC2)C(=O)N(CCCS(C)(=O)=O)CN3c2ccccc2)C(C)C)c1F [Example 177, (R)-2-Fluoro-3-methyl-N-(3-methyl-1-(3-(3-(methylsulfonyl)propyl)-4-oxo-1-phenyl-1,3,8-triazaspiro[4.5]decan-8-yl)-1-oxobutan-2-yl)benzamide]
- IC50: < 500 nM

Structure (SMILES): CC(C)[C@@H](NC(=O)c1ccc(Cl)c(Cl)c1)C(=O)N1CCC2(CC1)C(=O)N(C)C(=O)N2c1ccccc1 [Example 35, (R)-3,4-Dichloro-N-(3-methyl-1-(3-methyl-2,4-dioxo-1-phenyl-1,3,8-triazaspiro[4.5]decan-8-yl)-1-oxobutan-2-yl)benzamide]
- IC50: ≥ 1000 nM

Structure (SMILES): COc1ccc(N2C(=O)N(C)C(=O)C23CCN(C(=O)[C@H](NC(=O)c2cc(C4CC4)ccc2F)C(C)C)CC3)cc1 [Example 45, (R)-5-Cyclopropyl-2-fluoro-N-(1-(1-(4-methoxyphenyl)-3-methyl-2,4-dioxo-1,3,8-triazaspiro[4.5]decan-8-yl)-3-methyl-1-oxobutan-2-yl)benzamide]
- IC50: < 500 nM

Structure (SMILES): CC(C)[C@@H](NC(=O)c1cc(Cl)cc(C(F)(F)F)c1)C(=O)N1CCC2(CC1)C(=O)N(C)CN2c1ccc(C(=O)O)cc1 [Example 160, (R)-4-(8-(2-(3-Chloro-5-(trifluoromethyl)benzamido)-3-methylbutanoyl)-3-methyl-4-oxo-1,3,8-triazaspiro[4.5]decan-1-yl)benzoic Acid]
- IC50: < 500 nM

Structure (SMILES): CC(C)[C@@H](NC(=O)c1nc(C(F)(F)F)cs1)C(=O)N1CCC2(CC1)C(=O)N(C)C(=O)N2c1ccc2[nH]ncc2c1 [Example 235, (R)—N-(1-(1-(1H-Indazol-5-yl)-3-methyl-2,4-dioxo-1,3,8-triazaspiro[4.5]decan-8-yl)-3-methyl-1-oxobutan-2-yl)-4-(trifluoromethyl)thiazole-2-carboxamide]
- IC50: ≥ 1000 nM

Structure (SMILES): Cc1cccc(C(=O)N[C@@H](C(=O)N2CCC3(CC2)C(=O)N(C)CN3c2cccnc2)C(C)C)c1 [Example 195, (R)-3-Methyl-N-(3-methyl-1-(3-methyl-4-oxo-1-(pyridin-3-yl)-1,3,8-triazaspiro[4.5]decan-8-yl)-1-oxobutan-2-yl)benzamide]
- IC50: ≥ 1000 nM

Structure (SMILES): CC(C)[C@@H](NC(=O)c1cc(C(F)(F)F)ccc1F)C(=O)N1CCC2(CC1)C(=O)N(C)C(=O)N2c1ccc2cn[nH]c2c1 [Example 53, (R)—N-(1-(1-(1H-Indazol-6-yl)-3-methyl-2,4-dioxo-1,3,8-triazaspiro[4.5]decan-8-yl)-3-methyl-1-oxobutan-2-yl)-2-fluoro-5-(trifluoromethyl)benzamide]
- IC50: ≥ 1000 nM

Structure (SMILES): CC(C)[C@@H](NC(=O)c1cc(C(F)(F)F)ccc1F)C(=O)N1CCC2(CC1)C(=O)N(C)C(=O)N2Cc1cnn(C)c1 [Example 115, (R)-2-Fluoro-N-(3-methyl-1-(3-methyl-1-((1-methyl-1H-pyrazol-4-yl)methyl)-2,4-dioxo-1,3,8-triazaspiro[4.5]decan-8-yl)-1-oxobutan-2-yl)-5-(trifluoromethyl)benzamide]
- IC50: ≥ 1000 nM

Structure (SMILES): CCc1cccc(C(=O)N[C@@H](C(=O)N2CCC3(CC2)C(=O)N(C)C(=O)N3c2ccccc2)C(C)C)c1F [Example 34, (R)-3-Ethyl-2-fluoro-N-(3-methyl-1-(3-methyl-2,4-dioxo-1-phenyl-1,3,8-triazaspiro[4.5]decan-8-yl)-1-oxobutan-2-yl)benzamide]
- IC50: ≥ 1000 nM

Structure (SMILES): COC(=O)Nc1ccc(N2CN(C)C(=O)C23CCN(C(=O)[C@H](NC(=O)c2cc(C(F)(F)F)ccc2F)C(C)C)CC3)cc1 [Example 175, (R)-Methyl-4-(8-(2-(2-fluoro-5-(trifluoromethyl)benzamido)-3-methylbutanoyl)-3-methyl-4-oxo-1,3,8-triazaspiro[4.5]decan-1-yl)phenylcarbamate]
- IC50: < 500 nM

Structure (SMILES): CC(C)[C@@H](NC(=O)c1cc(C(F)(F)F)ccc1F)C(=O)N1CCC2(CC1)C(=O)N(C)C(=O)N2c1cc[n+]([O-])cc1 [Example 240, (R)-4-(8-(2-(2-Fluoro-5-(trifluoromethyl)benzamido)-3-methylbutanoy)-3-methyl-2,4-dioxo-1,3,8-triazaspiro[4.5]decan-1-yl)pyridine 1-oxide]
- IC50: ≥ 1000 nM

Structure (SMILES): CCc1cccc(C(=O)N[C@@H](C(=O)N2CCC3(CC2)C(=O)N(C)C(=O)N3c2ccccc2)C(C)C)c1 [Example 46, (R)-3-Ethyl-N-(3-methyl-1-(3-methyl-2,4-dioxo-1-phenyl-1,3,8-triazaspiro[4.5]decan-8-yl)-1-oxobutan-2-yl)benzamide]
- IC50: 500 to 1000 nM

Structure (SMILES): CC(C)[C@H](C(=O)N1CCC2(CC1)C(=O)N(C)C(=O)N2c1ccc2[nH]ncc2c1)N(C)C(=O)c1cc(C(F)(F)F)ccc1F [Example 236, (R)—N-(1-(1-(1H-Indazol-5-yl)-3-methyl-2,4-dioxo-1,3,8-triazaspiro[4.5]decan-8-yl)-3-methyl-1-oxobutan-2-yl)-2-fluoro-N-methyl-5-(trifluoromethyl)benzamide]
- IC50: ≥ 1000 nM

Structure (SMILES): CC(C)[C@@H](NC(=O)c1cc(OC(F)(F)F)ccc1F)C(=O)N1CCC2(CC1)C(=O)N(C)C(=O)N2c1ccc(-c2nn[nH]n2)cc1 [Example 225, (R)—N-(1-(1-(4-(2H-Tetrazol-5-yl)phenyl)-3-methyl-2,4-dioxo-1,3,8-triazaspiro[4.5]decan-8-yl)-3-methyl-1-oxobutan-2-yl)-2-fluoro-5-(trifluoromethoxy)benzamide]
- IC50: < 500 nM

Structure (SMILES): CCc1ccc(F)c(C(=O)N[C@@H](C(=O)N2CCC3(CC2)C(=O)N(C)CN3c2ccc3nc[nH]c3c2)C(C)C)c1 [Example 216, (R)—N-(1-(1-(1H-Benzo[d]imidazol-6-yl)-3-methyl-4-oxo-1,3,8-triazaspiro[4.5]decan-8-yl)-3-methyl-1-oxobutan-2-yl)-5-ethyl-2-fluorobenzamide]
- IC50: < 500 nM

Structure (SMILES): Cc1cccc(C(=O)N[C@@H](C(=O)N2CCC3(CC2)C(=O)N(C)CN3c2cccc(Cl)c2)C(C)C)c1 [Example 192, (R)—N-(1-(1-(3-Chlorophenyl)-3-methyl-4-oxo-1,3,8-triazaspiro[4.5]decan-8-yl)-3-methyl-1-oxobutan-2-yl)-3-methylbenzamide]
- IC50: < 500 nM

Structure (SMILES): CC(C)[C@@H](NC(=O)c1cc(C(F)(F)F)ccc1F)C(=O)N1CCC2(CC1)C(=O)N(C)C(=O)N2c1ccc2[nH]nnc2c1 [Example 32, (R)—N-(1-(1-(1H-Benzo[d][1,2,3]triazol-5-yl)-3-methyl-2,4-dioxo-1,3,8-triazaspiro [4.5]decan-8-yl)-3-methyl-1-oxobutan-2-yl)-2-fluoro-5-(trifluoromethyl)benzamide]
- IC50: < 500 nM

Structure (SMILES): CCN1C(=O)N(C)C(=O)C12CCN(C(=O)[C@H](NC(=O)c1cc(C(F)(F)F)ccc1F)C(C)C)CC2 [Example 123, (R)—N-(1-(1-Ethyl-3-methyl-2,4-dioxo-1,3,8-triazaspiro[4.5]decan-8-yl)-3-methyl-1-oxobutan-2-yl)-2-fluoro-5-(trifluoromethyl)benzamide]
- IC50: ≥ 1000 nM

Structure (SMILES): CN1C(=O)N(c2ccc3[nH]ncc3c2)C2(CCN(C(=O)[C@H](NC(=O)c3cc(C(F)(F)F)ccc3F)C3CCCC3)CC2)C1=O [Example 57, (R)—N-(2-(1-(1H-Indazol-5-yl)-3-methyl-2,4-dioxo-1,3,8-triazaspiro[4.5]decan-8-yl)-1-cyclopentyl-2-oxoethyl)-2-fluoro-5-(trifluoromethyl)benzamide]
- IC50: < 500 nM

Structure (SMILES): CC(C)[C@@H](NC(=O)c1cc(C(F)(F)F)ccc1F)C(=O)N1CCC2(CC1)C(=O)N(C)CN2c1ccc2nccn2c1 [Example 206, (R)-2-Fluoro-N-(1-(1-(imidazo[1,2-a]pyridin-6-yl)-3-methyl-4-oxo-1,3,8-triazaspiro[4.5]decan-8-yl)-3-methyl-1-oxobutan-2-yl)-5-(trifluoromethyl)benzamide trifluoroacetic Acid Salt]
- IC50: < 500 nM

Structure (SMILES): Cc1ccc(F)c(C(=O)N[C@@H](C(=O)N2CCC3(CC2)C(=O)N(C)CN3c2ccccc2)C(C)C)c1 [Example 141, (R)-2-Fluoro-5-methyl-N-(3-methyl-1-(3-methyl-4-oxo-1-phenyl-1,3,8-triazaspiro[4.5]decan-8-yl)-1-oxobutan-2-yl)benzamide]
- IC50: < 500 nM

Structure (SMILES): CC(C)[C@@H](NC(=O)c1cc(C(F)(F)F)ccc1F)C(=O)N1CCC2(CC1)C(=O)N(C)C(=O)N2c1ccc(OCC2CNC2)cc1 [Example 81, (R)—N-(1-(1-(4-(Azetidin-3-ylmethoxy)phenyl)-3-methyl-2,4-dioxo-1,3,8-triazaspiro[4.5]decan-8-yl)-3-methyl-1-oxobutan-2-yl)-2-fluoro-5-(trifluoromethyl)benzamide trifluoroacetic Acid Salt]
- IC50: ≥ 1000 nM

Structure (SMILES): CC(C)[C@@H](NC(=O)c1ccncc1)C(=O)N1CCC2(CC1)C(=O)N(C)C(=O)N2c1ccc2[nH]ncc2c1 [Example 231, (R)—N-(1-(1-(1H-Indazol-5-yl)-3-methyl-2,4-dioxo-1,3,8-triazaspiro[4.5]decan-8-yl)-3-methyl-1-oxobutan-2-yl)isonicotinamide]
- IC50: ≥ 1000 nM

Structure (SMILES): CCc1ccc(F)c(C(=O)N[C@@H](C(=O)N2CCC3(CC2)C(=O)N(C)C(=O)N3c2ccc(OC)cc2)C(C)C)c1 [Example 50, (R)-5-Ethyl-2-fluoro-N-(1-(1-(4-methoxyphenyl)-3-methyl-2,4-dioxo-1,3,8-triazaspiro[4.5]decan-8-yl)-3-methyl-1-oxobutan-2-yl)benzamide]
- IC50: < 500 nM
